Tests used:
[1] = tested on: skin models (reconstituted human epidermis, SkinEthic); test: LDH release following damage to the cells with SDS, O/W cream; conditions: SDS damage for 40 min, no test formulation; total LDH after 24 and 48 h
Procedure: The LDH concentration was determined using a commercially available test kit (LDH test kit, Roche Diagnostics, Mannheim, Germany).
Sodium dodecyl sulphate (SDS) is known to attack the cell membrane and lead to increased LDH release. Using the experiment described below, the aim was to investigate to what extent Compound 2.1 can protect the cells following damage with SDS.
The skin models were damaged with SDS for 40 min. The test formulation, an O/W cream with 1 or 4% of Compound 2.1, was then applied. The LDH release was measured 24 and 48 h after application of the test formulation.

[2] = tested on: skin models (reconstituted human epidermis, SkinEthic); test: Anti-inflammatory effect (IL-1α) of an O/W cream after SDS damage; format: cell-based; conditions: no test formulation, summed IL-1α after 24 and 48 h
Procedure: IL1-α is a messenger which plays a central role in inflammatory reactions in the body. Sodium lauryl sulphate (SDS) is a skin-irritative surfactant which can cause an irritative contact dermatitis in people, is used as model irritative in subject studies and, inter alia, induces the release of IL-1α. The IL-1α concentration was determined using a commercially available test kit (human IL-1α immunoassay, R&D Systems GmbH, Wiesbaden, Germany).
The aim was to investigate whether the anti-inflammatory effect of the compounds according to the invention is also present upon application from a cosmetic formulation. For this purpose, skin models were damaged with SDS. The test formulation was then applied. 24 and 48 h after the application, the Il-1α concentration was determined.

With CCCCCCCCCCCCOS(=O)(=O)[O-].[Na+] [SDS, Sodium dodecyl sulphate] the “LDH release as a result of the damage” value [1] was “increased greatly” and the “formation of the cytokine IL-1α as a result of the damage” value [2] was “increased greatly”.
